Source: paper PMC12277590 (Drug Design, Development and Therapy, 2025)
Where two headings read alike, the source gives them in different places.

Experiments:
[1] = type: in vivo, male Sprague-Dawley rats; conditions: rats
[2] = cited from earlier work
UGT1A3 = conditions: ref 14; cited from earlier work
human UGT1A9 = conditions: ref 14; cited from earlier work
human UGT1A1 = conditions: ref 14; cited from earlier work
plasma proteins = conditions: cited from earlier work
[3] = oral intake in human; cited from earlier work
CYP2C19 = conditions: in vitro; cited from earlier work
[4] = cited from earlier work; remark: listed apart in the source
BCRP = conditions: read-out: IC50, BCRP; cited from earlier work
P-gp = conditions: read-out: IC50, P-gp; cited from earlier work
[5] = markedly low water solubility and high permeability; cited from earlier work
MRP2 = conditions: read-out: IC50, MRP2; cited from earlier work
[6] = after multiple doses of telmisartan vs donafenib alone
[7] = after multiple doses of telmisartan vs sorafenib alone
[8] = oral sorafenib in humans, mass balance
[9] = after multiple doses of donafenib vs telmisartan alone

Question: What does the source list for `[2H]C([2H])([2H])NC(=O)c1cc(Oc2ccc(NC(=O)Nc3ccc(Cl)c(C(F)(F)F)c3)cc2)ccn1` [Donafenib]?
Answer: decrease in t1/2 of donafenib [1, 6]: 35.0%; increase in CLz/F of donafenib [1, 6]: 87.5%; N-oxidation (M2), % of total drug ([2]; ref 41): 24.76%; glucuronidation (M7), % of total drug ([2]; ref 41): 4.82%

Question: Which “inhibitory effects on UGT1A3” value (UGT1A3) does the source give for `CNC(=O)c1cc(Oc2ccc(NC(=O)Nc3ccc(Cl)c(C(F)(F)F)c3)cc2)ccn1` [Sorafenib] here?
Answer: no inhibitory effects

Question: What about the “decrease in CLz/F of sorafenib” value [1, 7] of the same compound?
Answer: 46.0%

Question: What about the “decrease in Vz/F of sorafenib” value [1, 7] of the same compound?
Answer: 50.4%

Question: What about the “increase in AUC0-t of sorafenib” value [1, 7] of the same compound?
Answer: 77.7%

Question: What about the “increase in AUC0-∞ of sorafenib” value [1, 7] of the same compound?
Answer: 75.8%

Question: And the “increase in Cmax of sorafenib” value [1, 7]?
Answer: 60.9%

Question: And the “inhibition of human UGT1A9” value (human UGT1A9)?
Answer: potent inhibitor

Question: And the “inhibition of human UGT1A1” value (human UGT1A1)?
Answer: potent inhibitor

Question: And the “drug eliminated as oxidative metabolites” value [2, 8]?
Answer: less than 5%

Question: What about the “drug eliminated as sorafenib-β-D-glucuronide (SG)” value [2, 8] of the same compound?
Answer: 15%

Question: What about the “binding to plasma proteins” value (plasma proteins; sorafenib, human) of the same compound?
Answer: more than 99%

Question: What about the “time to maximum plasma concentration” value [3] of the same compound?
Answer: about 3 hours

Question: With `CCCc1nc2c(C)cc(-c3nc4ccccc4n3C)cc2n1Cc1ccc(-c2ccccc2C(=O)O)cc1` [Telmisartan] as the compound, how does the “inhibition of CYP2C19” value (CYP2C19) read?
Answer: minor inhibition

Question: What about the “proportion metabolized to acyl-glucuronides by UGT1A3” value ([4]; ref 25,27) of the same compound?
Answer: 11%

Question: And the half-life for elimination ([4]; ref 26)?
Answer: about 24 hours

Question: What about the “proportion metabolized to acyl-glucuronides by UGT1A3” value ([4]; ref 34) of the same compound?
Answer: 11%

Question: And the IC50 (BCRP)?
Answer: 6.7 µM

Question: And the IC50 (P-gp)?
Answer: 12.4 µM

Question: And the “decrease in CLz/F of telmisartan” value [1, 9]?
Answer: 57.3%

Question: And the “decrease in Vz/F of telmisartan” value [1, 9]?
Answer: 45.6%

Question: And the “increase in AUC0-∞ of telmisartan” value [1, 9]?
Answer: 0.98 fold

Question: And the “effect of sorafenib on the pharmacokinetic parameters of telmisartan” value ([1]; multiple doses of sorafenib vs telmisartan alone)?
Answer: does not significantly affect

Question: And the “binding to plasma proteins” value (plasma proteins; telmisartan)?
Answer: 99.5%

Question: What about the BCS class [5] of the same compound?
Answer: class II

Question: And the IC50 (MRP2)?
Answer: 38.2 µM
